This assay deals with Carbonic anhydrase 2 (Homo sapiens, UniProt P00918). As to the kind of experiment: Binding affinity of compound against human Carbonic anhydrase II.

With `NS(=O)(=O)c1ccc(NSC(=S)N2CCOCC2)cc1`, the affinity, expressed as Ki, was 0.035 µM. This counts as double-digit nanomolar.

On to `NS(=O)(=O)c1ccc(CCNSC(=S)N2CCOCC2)cc1`, for which the inhibition constant (Ki) came out at 0.035 µM.

`NS(=O)(=O)c1ccc(CNSC(=S)N2CCOCC2)cc1` had a Ki of 0.035 µM.

By Ki is commonly meant a measure of affinity in units of concentration, obtained from inhibition or displacement.

Source of the values: ChEMBL document CHEMBL1133283, “Arylsulfonyl-N,N-diethyl-dithiocarbamates: a novel class of antitumor agents” (Bioorg Med Chem Lett, 2000).
